Experimental data taken from patent US9725484B2, “Methods and compositions for the treatment of bone remodeling disorders” (THE REGENTS OF THE UNIVERSITY OF MICHIGAN, priority 2013, dated 2017).
Starred links: 1 amine or outer side, 2 acyl side, 3 side chain; linkers in the order of their positions; H or OH if unused. Positions of bridges follow the written chain, without caps; N, C: chain ends. Non-standard residues stand in square brackets, D forms with d. Residues, ends and D or L forms follow the SMILES beside them. No end group written: not given here. CO = O=C([*:1])[*:2]; Nlys = NCCCCNCC(=O)O

Columns and labels:
[1] = test system: SE-activated NO signaling; experiment: Signal transduction assay: inhibition of SE-activated NO signaling; type: cell-based
Experimental: (§1) Surface plasmon resonance (SPR) and signal transduction assays were performed as previously described (Holoshitz et al., 2012; supra; Ling et al., 2010. PLoS ONE 5: e11703; Ling et al., 2012 Arthritis Rheum.). In vitro assays for OC differentiation, using primary bone marrow cells (BMCs) isolated from femurs and tibias, or PBMCs isolated from healthy blood donors were performed as previously described (Holoshitz et al., 2012; supra).

osteoclastogenesis = experiment: In vitro osteoclastogenesis / OC differentiation, cells not given; type: cell-based
Experimental: as §1

CIA [2] = experiment: Collagen-induced arthritis (CIA) in DBA/1 mice; type: in vivo, mouse
Experimental: DBA/1 mice (7-10 week old) were immunization as described (Holoshitz, 2012, J. Immunol.) with chicken CII in CFA. In brief, 50 μl of an emulsion containing 100 μg of CII in 25 μl of 0.05 M acetic acid and 25 μl of CFA was injected intradermally at the base of the tail. Mice were injected once per week intraperitoneally with either 1 or 10 pg (HS4-4)c Trp at in 50 μl of PBS. Arthritis severity was determined as previously described (Holoshitz, 2012, J. Immunol.), using a visual scoring system on a 4-point scale for each paw: 0=no arthritis, 1=swelling and redness confined to digits, 2=minor swelling and redness spreading from the digits to the distal paw, and 3=major swelling and redness extending proximally from the paw.
Limbs were dissected and decalcified in 10% EDTA for 14 days at 4° C. After decalcification, the specimens were processed for paraffin embedding and serial sectioned. The histological sections were deparaffinized, rehydrated and stained with hematoxylin and eosin (H&E), or for tartrate-resistant acid phosphatase (TRAP) activity using a commercial kit (Kamiya Biomedical Company, Seattle, Wash.). To determine OC abundance, TRAP-positive multinucleated cells were counted. Data represent mean±SEM of the total number of OCs in front and rear paws+knees. Bone damage was evaluated by radiography and micro-computed tomography (micro-CT) as previously described (Holoshitz, 2012, J. Immunol.).

recombinant CRT = target: T1, recombinant CRT (Mus musculus, UniProt P14211); experiment: Surface plasmon resonance (SPR) binding assay: binding to CRT and competitive inhibition of SE ligand 65-79*0401 binding; conditions: for Potency of competitive inhibition of SE ligand binding to CRT: result in words
T1 construct: made in house
T1 sequence (P14211 18-416): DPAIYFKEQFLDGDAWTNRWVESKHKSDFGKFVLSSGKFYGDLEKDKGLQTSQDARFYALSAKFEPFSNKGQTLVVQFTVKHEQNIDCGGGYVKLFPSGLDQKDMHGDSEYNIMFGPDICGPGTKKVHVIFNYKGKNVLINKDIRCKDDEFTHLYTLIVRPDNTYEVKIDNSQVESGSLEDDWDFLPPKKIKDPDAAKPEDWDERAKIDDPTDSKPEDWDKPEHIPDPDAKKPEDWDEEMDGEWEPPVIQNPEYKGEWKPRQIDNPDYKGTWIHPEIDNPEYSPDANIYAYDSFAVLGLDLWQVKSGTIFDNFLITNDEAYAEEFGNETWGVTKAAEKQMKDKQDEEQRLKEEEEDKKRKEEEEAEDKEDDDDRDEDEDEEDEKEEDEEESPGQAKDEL
Description: Ficoll-Paque™, 4,5-Diaminofluorescein Diacetate (DAF-2 DA), 5-(and -6)-chloromethyl-2′,7′ dichlorodihydrofluorescein (CM-H2DCFDA), macrophage colony-stimulating factor (M-CSF), RANKL, denatured chicken collagen type II (CII), and complete Freund's Adjuvant (CFA) were purchased from previously listed sources. All other commercial reagents were purchased from Sigma (St Louis, Mo.). Linear peptides were synthesized and purified (>90%) as previously described (Ling et al., 2006 supra; Ling et al., 2007 Arthritis Res Ther 9: R5; Ling et al., 2007 The Journal of Immunology 179: 6359-6367; De Almeida et al., supra). Peptidomimetics were prepared by backbone cyclization (Kotake et al., 1999 J. Clin. Invest. 103: 1345-1352) of a 5mer peptide carrying the sequence DKCLA (SEQ ID NO: 1). Recombinant mouse CRT was purified as described (Ling and Holoshitz. 2007 The Journal of Immunology 179: 6359-6367).
as §1

[3] = test system: SE-activated OC differentiation in human cells (PBMCs); experiment: In vitro OC differentiation assay, human PBMCs; type: cell-based; conditions: FIG. 2D
Experimental: Isolation of human peripheral blood mononuclear cells (PBMCs) and culture of M1 fibroblasts were previously described (Holoshitz et al., 2012, J. Immunol.). DBA/1 mice, 6 to 10 weeks old, were purchased from the Jackson Laboratory (Bar Harbor, Me.). Mice were maintained and housed at the University of Michigan-Unit for Laboratory Animal Medicine facility, and all experiments were performed in accordance with protocols approved by University of Michigan Committee on Use and Care of Animals.
as §1

[4] = test system: osteoclastogenesis in mouse bone marrow cell cultures; experiment: In vitro OC differentiation assay, mouse bone marrow cell cultures; type: cell-based; conditions: FIG. 2E; for Inhibition of basal osteoclastogenesis: mouse bone marrow cell cultures; for Inhibition of SE-activated OC differentiation: mouse cells
Experimental: as §1

CIA [5] = conditions: in vivo; cited from earlier work
rodent cells = experiment: Literature: in vitro inhibition in rodent cells (Fridman et al.); type: cell-based
[6] = target: T2, recombinant mouse CRT (calreticulin) (mouse, UniProt P14211 18-416, limits assumed); experiment: SPR, peptide as analyte, recombinant CRT immobilized
T2 construct: also called recombinant CRT
T2 sequence (looked up): T1 sequence (P14211 18-416)

HS(3-4)c Trp (DKCLA; bridge (positions not given here); not fully specified (bridges); also: backbone cyclized, linker m=3, n=4, 'Trp' in name unexplained)
IC50 [1]: 4300 nM
Inhibition of osteoclastogenesis (osteoclastogenesis; FIG. 2F): does not inhibit
Arthritis incidence (CIA [2]; weekly ip): does not inhibit
Arthritis severity (CIA [2]; weekly ip): does not inhibit

HS(4-6)c Trp: backbone cyclic DKCLA (cDKCLA) peptidomimetic; cyclization linker m is 4 and n is 6 (bridge (positions not given here); not fully specified (bridges); also: backbone cyclized, linker m=4, n=6, 'Trp' in name unexplained)
IC50 [1]: 560 nM

C[C@H](NC(=O)CN1CCCCNC(=O)NCCCCN(C(=O)[C@@H](N)Cc2c[nH]c3ccccc23)CC(=O)N[C@@H](CC(=O)O)C(=O)N[C@@H](CCCCN)C(=O)N[C@@H](CS)C1=O)C(N)=O [HS(4-4)c Trp] (H-W[Nlys]DKC[Nlys]A-NH2; linker 2-6 via CO)
IC50 [1]: 0.0016 nM
SEAL potency relative to the linear DKCLA peptide [1]: 1,000,000 times
Concentrations blocking the SE signaling effects ([1]; result in words): low-pM
Potency of competitive inhibition of SE ligand binding to CRT (recombinant CRT): low-pM
Inhibition of SE-activated OC differentiation [3]: sub-pM
Inhibition of basal osteoclastogenesis [4]: sub-pM
Inhibition of SE-activated OC differentiation [4]: sub-pM
Concentrations with inhibitory effect on OC differentiation (osteoclastogenesis; result in words): sub-to-low-pM
Dose range achieving disease amelioration effects (CIA [2]; mouse, in vivo): ng/kg-range
In vivo potency relative to INCB028050, SB1518, CEP-33779 (CIA [2]; mouse, in vivo): 1,000,000 fold
Arthritis incidence (CIA [2]; weekly ip): lower incidence
Arthritis severity (CIA [2]; weekly ip): significantly milder
Bone destruction, micro-CT imaging of joints (CIA [2]; weekly ip): lesser extent of bone destruction
OC abundance, synovial tissue histology (TRAP) (CIA [2]; weekly ip): lower OC abundance
Arthritis onset (CIA [2]; weekly ip, low-picogram doses): delayed onset

HS(3-3)c Trp: backbone cyclic DKCLA (cDKCLA) peptidomimetic; cyclization linker m is 3 and n is 3 (bridge (positions not given here); not fully specified (bridges); also: backbone cyclized, linker m=3, n=3, 'Trp' in name unexplained)
IC50 [1]: 0.0018 nM
Inhibition of SE-activated OC differentiation [3]: sub-pM
Inhibition of basal osteoclastogenesis [4]: sub-pM
Inhibition of SE-activated OC differentiation [4]: sub-pM

CN1CCN(c2cccc(Nc3nc4c(-c5ccc(S(C)(=O)=O)cc5)cccn4n3)c2)CC1 [CEP-33779]
Dose range with therapeutic efficacy in CIA (CIA [5]): mg/kg-range

CCS(=O)(=O)N1CC(CC#N)(n2cc(-c3ncnc4[nH]ccc34)cn2)C1 [INCB028050]
Potency lower than compound HS(4-4)c Trp (rodent cells): ~1000 fold
Dose range with therapeutic efficacy in CIA (CIA [5]): mg/kg-range

HS(6-2)c Trp: backbone cyclic DKCLA (cDKCLA) peptidomimetic; cyclization linker m is 6 and n is 2 (bridge (positions not given here); not fully specified (bridges); also: backbone cyclized, linker m=6, n=2, 'Trp' in name unexplained)
IC50 [1]: 770 nM

HS(6-4)c Trp: backbone cyclic DKCLA (cDKCLA) peptidomimetic; cyclization linker m is 6 and n is 4 (bridge (positions not given here); not fully specified (bridges); also: backbone cyclized, linker m=6, n=4, 'Trp' in name unexplained)
IC50 [1]: 6.3 nM

DKCLA [Linear DKCLA]
IC50 [1]: 35000 nM
Block of NO induction by the SE ligand ([1]; result in words): completely blocked
Binding to CRT (recombinant CRT; peptide in the analyte, CRT immobilized on the biosensor chip): bound to CRT
Potency of competitive inhibition of SE ligand binding to CRT (recombinant CRT): low-μM-range

C1=C/COCc2cc(ccc2OCCN2CCCC2)Nc2nccc(n2)-c2cccc(c2)COC/1 [SB1518]
Dose range with therapeutic efficacy in CIA (CIA [5]): mg/kg-range

B1: linear DKCLA (SEQ ID NO: 1) peptide (peptide)
peptide: DKCLA
notes: Synthetic linear 5mer; analyte in SPR
binding result [6]: binds
